Reference: patent publication EP2818471A1, “Nitrogen bicyclic compounds as inhibitors for Scyl1 and Grk5” (Max-Planck-Gesellschaft zur Förderung der Wissenschaften …, priority 2013, dated 2014)

Each compound was assayed on beta-TC6 cells (assay: Insulin HTRF assay, relative activity Ar normalized to sunitinib). Conditions: Mus musculus, normalized to positive control sunitinib (5 µM = 100%), Table 10.
Assay type: cell-based
Summary of the method: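 beta-TC6 cells (15k/well) were seeded for 24 or 48 h, washed and exposed to test compound or sunitinib (5 µM f.c.) in induction buffer with 0.5% DMSO for 2, 3 or 4 h at 37°C. Secreted insulin in the supernatant was measured by two-antibody HTRF after 120 min at RT. Ar = (V − 0% control)/(100% control − 0% control) × 100.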
With `COc1cccc(-c2cn3c(-c4cccc(O)c4)cnc3cn2)c1F` [compound 372, 3-[6-(2-fluoro-3-methoxy-phenyl)imidazo[1,2-a]pyrazin-3-yl]phenol] the Emax was 20 to 50%.
Compound `COc1cc(-c2cn3c(-c4ccc5c(ccn5C)c4)cnc3cn2)ccc1O` [compound 400, 2-methoxy-4-[3-(1-methylindol-5-yl)imidazo[1,2-a]pyrazin-6-yl]phenol] has an Emax of 20 to 50%.
In the case of `N#Cc1ccc(-c2ccc3nnc(-c4cccc(O)c4)n3c2)cc1` [compound 206, 4-[3-(3-hydroxyphenyl)-[1,2,4]triazolo[4,3-a]pyridin-6-yl]benzonitrile], the Emax is reported as 50 to 100%.
`COc1cc(OC)cc(-c2cnc3cnc(-c4ccccc4N(C)C)cn23)c1` [compound 436, 2-[3-(3,5-dimethoxyphenyl)imidazo[1,2-a]pyrazin-6-yl]-N,N-dimethylaniline] gave an Emax of 20 to 50%.
In the case of `Oc1cccc(-c2cnc3cnc(-c4cccc(Cl)c4)cn23)c1` [compound 368, 3-[6-(3-chlorophenyl)imidazo[1,2-a]pyrazin-3-yl]phenol], the Emax is reported as 20 to 50%.
For `c1csc(-c2cn3c(-c4ccsc4)cnc3cn2)c1` [compound 322, 6-(2-thienyl)-3-(3-thienyl)imidazo[1,2-a]pyrazine], the Emax was 50 to 100%.
With `Clc1ccccc1-c1ccc2nnc(-c3cscn3)n2c1` [compound 233, 4-[6-(2-chlorophenyl)-[1,2,4]triazolo[4,3-a]pyridin-3-yl]thiazole] the Emax was 50 to 100%.
Work on `CC(=O)c1cccc(-c2cnc3ccc(-c4ccc(N)nc4)nn23)c1` [compound 153, 1-[3-[6-(6-amino-3-pyridyl)imidazo[1,2-b]pyridazin-3-yl]phenyl]ethanone] yielded an Emax of 20 to 50%.
For `Cn1ccc2cc(-c3cn4c(-c5ccc6ncccc6c5)cnc4cn3)ccc21` [compound 443, 6-[6-(1-methylindol-5-yl)imidazo[1,2-a]pyrazin-3-yl]quinoline], the Emax was ≥ 100%.
In the case of `Cc1ccc(CNc2ccc3ncc(-c4ccc(C(=O)NCCN(C)C)cc4)n3n2)c(C)c1` [compound 54, N-(2-dimethylaminoethyl)-4-[6-[(2,4-dimethylphenyl)methylamino]imidazo[1,2-b]pyridazin-3-yl]benzamide], the Emax is reported as 20 to 50%.
With `O=C(Nc1cnc2cnc(-c3ccc4ccccc4c3)cn12)C1CCOC1` (stereo not drawn) [compound 275, N-[6-(2-naphthyl)imidazo[1,2-a]pyrazin-3-yl]tetrahydrofuran-3-carboxamide] the Emax was 10 to 20%.
Compound `CNc1ccc2ncc(-c3cccc(C(=O)N(C)C)c3)n2n1` [compound 61, N,N-dimethyl-3-[6-(methylamino)imidazo[1,2-b]pyridazin-3-yl]benzamide] has an Emax of 20 to 50%.
`CC(=O)Nc1cccc(-c2cnc3ccc(NCc4ccc(F)cc4)nn23)c1` [compound 19, N-[3-[6-[(4-fluorophenyl)methylamino]imidazo[1,2-b]pyridazin-3-yl]phenyl]acetamide] gave an Emax of 10 to 20%.
`COc1cccc(-c2cn3c(NC(=O)Cc4ccsc4)cnc3cn2)c1` [compound 279, N-[6-(3-methoxyphenyl)imidazo[1,2-a]pyrazin-3-yl]-2-(3-thienyl)acetamide] gave an Emax of 20 to 50%.
With `COc1cccc(CC(=O)Nc2cnc3cnc(-c4ccccc4CN(C)C)cn23)c1` [compound 252, N-[6-[2-(dimethylaminomethyl)phenyl]imidazo[1,2-a]pyrazin-3-yl]-2-(3-methoxyphenyl)acetamide] the Emax was 20 to 50%.
With `OC1CCC(Nc2ccc3ncc(Br)n3n2)CC1` (stereo not drawn) [compound 32, 4-[(3-bromoimidazo[1,2-b]pyridazin-6-yl)amino]cyclohexanol] the Emax was 10 to 20%.
With `COc1cc(-c2cnc3ccc(-c4cccc(OC(F)(F)F)c4)nn23)ccc1O` [compound 138, 2-methoxy-4-[6-[3-(trifluoromethoxy)phenyl]imidazo[1,2-b]pyridazin-3-yl]phenol] the Emax was 10 to 20%.
Compound `FC(F)(F)c1cccc(-c2cnc3ccc(C4CC4)nn23)c1` [compound 136, 6-cyclopropyl-3-[3-(trifluoromethyl)phenyl]imidazo[1,2-b]pyridazine] has an Emax of 10 to 20%.
In the case of `Clc1cccc(-c2nnc3ccc(-c4ccc5c(c4)OCO5)cn23)c1` [compound 198, 6-(1,3-benzodioxol-5-yl)-3-(3-chlorophenyl)-[1,2,4]triazolo[4,3-a]pyridine], the Emax is reported as 50 to 100%.
`NC(=O)c1cccc(-c2ccc3nnc(-c4cscn4)n3c2)c1` [compound 230, 3-(3-thiazol-4-yl-[1,2,4]triazolo[4,3-a]pyridin-6-yl)benzamide] gave an Emax of 20 to 50%.
Compound `O=C(O)CCc1ccc(-c2cnc3cnc(-c4ccccc4Cl)cn23)cc1` [compound 331, 3-[4-[6-(2-chlorophenyl)imidazo[1,2-a]pyrazin-3-yl]phenyl]propanoic acid] has an Emax of 50 to 100%.
`Nc1ccc(-c2ccc3nnc(-c4cccc(C(F)(F)F)c4)n3c2)cn1` [compound 214, 5-[3-[3-(trifluoromethyl)phenyl]-[1,2,4]triazolo[4,3-a]pyridin-6-yl]pyridin-2-amine] gave an Emax of 20 to 50%.
`CN1CCN(c2ccc(-c3cn4c(-c5cccc(O)c5)cnc4cn3)cc2)CC1` [compound 367, 3-[6-[4-(4-methylpiperazin-1-yl)phenyl]imidazo[1,2-a]pyrazin-3-yl]phenol] showed an Emax of 20 to 50%.
`CS(=O)(=O)Nc1cccc(-c2cn3c(-c4ccc5ncccc5c4)cnc3cn2)c1` [compound 444, N-[3-[3-(6-quinolyl)imidazo[1,2-a]pyrazin-6-yl]phenyl]methanesulfonamide] gave an Emax of 20 to 50%.
Work on `NC(=O)c1ccc(-c2ccc3ncc(-c4cccc(OC(F)(F)F)c4)n3n2)cc1` [compound 117, 4-[3-[3-(trifluoromethoxy)phenyl]imidazo[1,2-b]pyridazin-6-yl]benzamide] yielded an Emax of 20 to 50%.
With `COc1cc(-c2ccc3nnc(-c4cccc(C(F)(F)F)c4)n3c2)cc(OC)c1OC` [compound 210, 3-[3-(trifluoromethyl)phenyl]-6-(3,4,5-trimethoxyphenyl)-[1,2,4]triazolo[4,3-a]pyridine] the Emax was 50 to 100%.
`COc1cc(-c2cnc3cnc(-c4ccc5c(c4)OCO5)cn23)ccc1O` [compound 394, 4-[6-(1,3-benzodioxol-5-yl)imidazo[1,2-a]pyrazin-3-yl]-2-methoxy-phenol] gave an Emax of 20 to 50%.
`CC(=O)Nc1ccc(-c2ccc3nnc(-c4cccc(Cl)c4)n3c2)cc1` [compound 202, N-[4-[3-(3-chlorophenyl)-[1,2,4]triazolo[4,3-a]pyridin-6-yl]phenyl]acetamide] was tested, and the Emax was 20 to 50%.
In the case of `c1ccc(-c2cnc3cnc(-c4cccs4)cn23)cc1` [compound 298, 3-phenyl-6-(2-thienyl)imidazo[1,2-a]pyrazine], the Emax is reported as 20 to 50%.
Work on `CN(C)C(=O)c1cccc(-c2cn3c(-c4ccc(N(C)C)cc4)cnc3cn2)c1` [compound 293, 3-[3-(4-dimethylaminophenyl)imidazo[1,2-a]pyrazin-6-yl]-N,N-dimethyl-benzamide] yielded an Emax of 20 to 50%.
Compound `O=C(O)CCc1ccc(-c2cnc3cnc(-c4cccc(Cl)c4)cn23)cc1` [compound 329, 3-[4-[6-(3-chlorophenyl)imidazo[1,2-a]pyrazin-3-yl]phenyl]propanoic acid] has an Emax of 20 to 50%.
With `CC(=O)Nc1cccc(-c2cn3c(-c4ccc(F)c(Cl)c4)cnc3cn2)c1` [compound 350, N-[3-[3-(3-chloro-4-fluoro-phenyl)imidazo[1,2-a]pyrazin-6-yl]phenyl]acetamide] the Emax was 20 to 50%.
`c1ccc(Oc2cccc(-c3ccc4nnc(-c5ccncc5)n4c3)c2)cc1` [compound 181, 6-(3-phenoxyphenyl)-3-(4-pyridyl)-[1,2,4]triazolo[4,3-a]pyridine] gave an Emax of 20 to 50%.
